Entries after “also recorded” stand apart in the source; their conditions may differ.
Experiments:
[1] = tested on: rat model of dementia caused by multiple cerebral infarction; assay: Cognitive tests in rat model of dementia caused by multiple cerebral infarction; type: in vivo, SD rats
Experimental: 135 SPF grade SD rats (75 females, 60 males, weighing 200-220 g) were used. Anesthesia was performed by intraperitoneal injection of 3.5% chloral hydrate (350 mg/kg). After dorsal fixation, neck hair removal and iodophor disinfection, animals were cut along the middle of the neck to separate the right common carotid artery, external carotid artery and internal carotid artery. The common carotid artery was temporarily clamped by the artery clamp, the left external carotid artery was retrogradely punctured to the beginning of the left internal carotid artery with a pediatric scalp needle, and then 0.4 ml of embolic normal saline suspension was slowly injected with a syringe (the preparation of embolic normal saline suspension was as follows: blood was collected from the abdominal aorta of the same rat, dried naturally in a 37° C. incubator, and prepared for 80-200 minutes to form a blood clot; during application, 0.3 ml normal saline was added to every 10 mg blood clot), and the common carotid artery clamp was opened at the same time, then the external carotid artery was ligated and the skin was sutured. In the sham operation group, 0.4 ml normal saline was used instead of embolic suspension. The experimental animals were randomly divided into 6 groups according to weight balance, as follows: sham operation group, model group, positive control group (donepezil) and test compound group (different doses). There were 12-14 rats in each group. The animals in each group began to give drugs by gavage after modeling until the end of the experiment. The animals underwent Y maze experiment on the 16th day of administration, new object discrimination experiment on the 17th-20th day, Morris water maze experiment on the 22nd-27th day, and dark avoidance experiment on the 28th-29th day. On the 30th day, animals were sacrificed and tissues harvested for analysis.
The main pathological indexes included investigation of the improvement of learning and memory impairment in the dementia model animal by test compound using behavioral experimental methods such as Y maze, new object discrimination, Morris water maze and passive avoidance test (dark avoidance); investigation of the protective effect of test compound on mitochondria by detecting the content of ATP in hippocampus and cortex of rats; and investigation of levels of oxidative stress in the rat brain by measuring activity of superoxide dismutase (SOD, which is an oxygen free-radical scavenger), glutathione peroxidase (GSH-Px, which scavenges lipid peroxides induced by reactive oxygen species and —OH), nitric oxide synthase (NOS), malondialdehyde (MDA), and nitric oxide (NO). The ultrastructure of nerve cells (including nucleus, mitochondria and synapse) was investigated using immunofluorescence and transmission electron microscope. Expression of synaptic associated proteins SYP and PSD95 was detected by Western blotting. Experimental results for compound 4 on the concentration of nitric oxide (NO), the activity of nitric oxide synthase (NOS) and the ultrastructure of nerve cells in the rat model of dementia caused by multiple cerebral infarction are shown in FIGS. 7-11. Experimental results were statistically analyzed using IBM SPSS 21.0 software. The differences between groups were compared by one-way ANOVA or two-way ANOVA (water maze directional navigation) and LSD test.

[2] = tested on: ATP; assay: ATP content of hippocampus and cortex, multiple cerebral infarction dementia rats; type: in vivo, SD rats; settings: compared with the model group, p<0.05
Experimental: (§1) 135 SPF grade SD rats (75 females, 60 males, weighing 200-220 g) were used. Anesthesia was performed by intraperitoneal injection of 3.5% chloral hydrate (350 mg/kg). After dorsal fixation, neck hair removal and iodophor disinfection, animals were cut along the middle of the neck to separate the right common carotid artery, external carotid artery and internal carotid artery. […]
(§2) The main pathological indexes included investigation of the improvement of learning and memory impairment in the dementia model animal by test compound using behavioral experimental methods such as Y maze, new object discrimination, Morris water maze and passive avoidance test (dark avoidance); investigation of the protective effect of test compound on mitochondria by detecting the content of ATP in hippocampus and cortex of rats; and investigation of levels of oxidative stress in the rat brain by measuring activity of superoxide dismutase (SOD, which is an oxygen free-radical scavenger), glutathione peroxidase (GSH-Px, which scavenges lipid peroxides induced by reactive oxygen species and —OH), nitric oxide synthase (NOS), malondialdehyde (MDA), and nitric oxide (NO). […] Expression of synaptic associated proteins SYP and PSD95 was detected by Western blotting. […] Experimental results were statistically analyzed using IBM SPSS 21.0 software. […]

[3] = tested on: MBP; assay: MBP expression, multiple cerebral infarction dementia rats; type: in vivo, SD rats; settings: compared with the model group, p<0.05
Experimental: as §1, §2

[4] = tested on: Bax; assay: Bax expression by Western blotting, ischemia-reperfusion dementia mice; type: in vivo, C57BL/6J mice
Experimental: 140 healthy C57BL/6J mice, including 70 males and 70 females, were used. 1% Pentobarbital Sodium (50 mg/kg) was injected intraperitoneally to anesthetize the mice. The back position was fixed, the neck hair was removed, and the common carotid arteries were cut along the middle of the neck after iodophor disinfection. The common carotid arteries were separated, clamped with a noninvasive artery clamp for 15 minutes, released for 10 minutes, and then clamped for 10 minutes. Penicillin powder was then applied to suture muscles and skin. The sham operation group was not clamped, and other operations were the same as for the model group. […]
The main pathological index included: investigation of the improvement of learning and memory impairment by the compound in the pathogenic model of cerebral ischemia-reperfusion using behavioral experimental methods such as Y maze, new object discrimination, spontaneous activity, Morris water maze and passive avoidance experiment (dark avoidance); investigation of the ultrastructure of nerve cells (including nucleus, mitochondria and synapse) by HE staining and immunofluorescence; detection of expression of synaptic associated proteins SYP and PSD95 by Western blotting; and detection of expression of apoptosis-related proteins Bcl-2 and Bax by Western blotting. […] Experimental results were analyzed statistically using IBM SPSS 21.0 software. […]

[5] = tested on: mouse model of dementia caused by cerebral ischemia-reperfusion; assay: Cognitive tests in mouse model of dementia caused by cerebral ischemia-reperfusion; type: in vivo, C57BL/6J mice
Experimental: (§3) 140 healthy C57BL/6J mice, including 70 males and 70 females, were used. 1% Pentobarbital Sodium (50 mg/kg) was injected intraperitoneally to anesthetize the mice. The back position was fixed, the neck hair was removed, and the common carotid arteries were cut along the middle of the neck after iodophor disinfection. The common carotid arteries were separated, clamped with a noninvasive artery clamp for 15 minutes, released for 10 minutes, and then clamped for 10 minutes. Penicillin powder was then applied to suture muscles and skin. The sham operation group was not clamped, and other operations were the same as for the model group. […] Mice were divided into 6 groups: sham operation group, model group, positive control group (donepezil) and test compound group (different doses). Test compounds were administered by gavage to each group on the next day of modeling. The compound group was given compounds once a day in the morning and evening, and the volume of each gavage was 10 ml/kg. Half of the animals in the sham operation group and the model group were given the same amount of distilled water, and half of the animals were given the same amount of 1% sodium carboxymethylcellulose solution. From the 16th day of administration, Y maze, new object discrimination (days 17-20), spontaneous activity (days 20), Morris water maze (days 23-28) and dark avoidance experiment (days 29-30) were carried out successively. During the behavioral experiment, the administration of compound was continued until the animals were sacrificed.
The main pathological index included: investigation of the improvement of learning and memory impairment by the compound in the pathogenic model of cerebral ischemia-reperfusion using behavioral experimental methods such as Y maze, new object discrimination, spontaneous activity, Morris water maze and passive avoidance experiment (dark avoidance); investigation of the ultrastructure of nerve cells (including nucleus, mitochondria and synapse) by HE staining and immunofluorescence; detection of expression of synaptic associated proteins SYP and PSD95 by Western blotting; and detection of expression of apoptosis-related proteins Bcl-2 and Bax by Western blotting. The experimental results for compound 4 on the expression of SYP and PSD95 in the hippocampus of dementia model mice induced by cerebral ischemia-reperfusion are shown in FIG. 5 and FIG. 6 and in Table V below. Experimental results were analyzed statistically using IBM SPSS 21.0 software. The differences between groups were compared by one-way ANOVA or two-way ANOVA (water maze directional navigation) and LSD test. Experimental data were expressed by “mean±SEM”, P<0.05.

[6] = cited from earlier work
[7] = tested on: SYP; assay: SYP expression in hippocampus by Western blotting, ischemia-reperfusion dementia mice; type: in vivo, C57BL/6J mice
Experimental: Compound 4, 85 mg/kg, bid; D. Compound 4, 170 mg/kg, bid; E. Compound 4, 340 mg/kg, bid; F. Donepezil, 1.3 mg/kg. Compared with sham operation group, ## P<0.01; Compared with the model group, * P<0.05.
as §3, with “From the 16th day of administration, Y maze, new object discrimination (days 17-20), spontaneous activity (days 20), Morris water maze (days 23-28) and dark avoidance experiment (days 29-30) were carried out successively. During the behavioral experiment, the administration of compound was continued until the animals were sacrificed.” left out

[8] = second listing in Table VII, Test group vs model group, n = 12-14
[9] = Test group vs model group, n = 15-17, dose not stated
[10] = mice, gavage, morning and evening
[11] = 2-h time point, oral, 0.72 mmol/kg

## [2H]C([2H])(CCS(=O)(=O)O)NC(=O)[C@@H](N)C(C)C [compound 4, 3-((L-valyl)amino)-3,3-dideuterium-1-propanesulfonic Acid]
[1]; rats, gavage
  total swimming distance in the water maze test: can improve
[1]; [8]
  Discrimination coefficient for new objects, p compared with model group: p < 0.05
  Priority index for new objects, p compared with model group: p < 0.01
[2]
  ATP content of hippocampus and cerebral cortex: significantly increased
[3]
  MBP expression: increased
[4]; [9]
  Bax expression, p compared with model group: p < 0.01
[4]; compared with the model group
  expression of Bax: reduced
[5]; [9]
  Discrimination coefficient for new objects, p compared with model group: p < 0.05
  Percentage of swimming distance, p compared with model group: p < 0.05
  Priority index for new objects, p compared with model group: p < 0.05
  Spontaneous alternating response rate, p compared with model group: p < 0.05
  Swimming time in target quadrant, p compared with model group: p < 0.05
  The incubation period for entering the darkroom, p compared with model group: p < 0.05
  Times of crossing the platform, p compared with model group: p < 0.01
[5]; [10]
  discrimination coefficient to new objects in the new object discrimination experiment: improved
  incubation period of entering the dark room in the dark avoidance experiment: prolonged
  number of times of crossing the platform: increased
  percentage of swimming distance in the target quadrant: improved
  priority index to new objects in the new object discrimination experiment: improved
  spontaneous alternating response rate in the Y maze experiment: significantly improved
  swimming time in the target quadrant in the water maze test: prolonged
[5]; vascular dementia mice caused by cerebral ischemia-reperfusion
  working memory, image recognition memory, spatial memory and long-term memory impairment: can significantly improve
[6]; [11]
  concentration of metabolite (2-carboxy-1-ethanesulfonic acid) in plasma compared to 3APS (of natural abundance): much lower
  plasma drug concentration compared to 3APS (of natural abundance): higher
[6]; mole-equivalent oral dose (0.72 mmol/kg), mouse plasma
  plasma drug exposure compared to 3APS (of natural abundance): improved plasma drug exposure significantly; also recorded: even greater improvement of drug exposure
[6]; mole-equivalent oral dose, mouse plasma, versus 3APS of natural abundance
  increase of Cmax for the drug concentration: ~2 fold
[6]; mole-equivalent oral dose, mouse
  drug metabolism / metabolic profile compared to 3APS: delayed drug metabolism
[6]; oral, mouse plasma
  conversion of prodrug to compound 1 in the subject: converted easily to compound 1
[7]; [9]
  SYP expression, p compared with model group: p < 0.05
[7]; compared with the model group
  expression of SYP: increased

Reference: patent US12403129B2, “Isotope-enriched 3-amino-1-propanesulfonic acid derivatives for the treatment of cerebrovascular disease” (RISEN (SUZHOU) PHARMA TECH CO., LTD., priority 2021, dated 2025)
